# Where a SMILES comes first, the peptide text is derived from it. [ ]: non-standard residue; d: D form. βAla = NCCC(=O)O
# Tested on: anti-hCG monoclonal antibody directed against a portion of the β-subunit of hCG
# Assay: EIA binding of BSA-conjugated peptide with anti-hCG monoclonal antibody
# Settings: peptide conjugated to BSA, absorbed on 96-well plate; antibody overnight at 4° C; alkaline phosphatase labeled protein A
# Source text: The peptide was conjugated through its thiol group to BSA using a heterobifunctional cross-linking reagent (succinimidyl 4-(N-maleimidomethyl)cyclohexane-1-carboxylate). The conjugates were first absorbed on the wells of a ninety-six well plate. Nonspecific binding sites on the surface was masked by unlabeled BSA. […] Alkaline phosphatase labeled protein A was used for the color development.
row,binding with anti-hCG antibody (EIA response),Molecule
1,positive results,H2 N-Gly-Gly-Arg-Leu-Pro-Gly-Pro-Ser-Asp-Cys-Gly-COOH (H-GGRLPGPSDCG-OH) [EXAMPLE I]

# Tested on: second monoclonal antibody against hCG
# Assay: not given
# Settings: not given
row,Molecule,Krel (relative binding affinity)
1,"C[C@H](NC(=O)[C@H](CO)NC(=O)CNC(=O)[C@H](CO)NC(=O)CN)C(=O)NCC(=O)N1CCC[C@H]1C(=O)N[C@@H](CCCNC(=N)N)C(=O)N[C@@H](Cc1ccc(O)cc1)C(=O)N[C@@H](CC(N)=O)C(=O)N[C@@H](Cc1ccccc1)C(=O)NCC(=O)NCCC(=O)O [SEQ ID NO: 21, Gly--Ser--Gly--Ser--Ala--Gly--Pro--Arg--Tyr--Asn--Phe--Gly--βAla] (H-GSGSAGPRYNFG[βAla]-OH)",1.6
2,"CSCC[C@H](NC(=O)[C@H](Cc1ccc(O)cc1)NC(=O)[C@H](CCC(N)=O)NC(=O)[C@@H]1CCCN1C(=O)CNC(=O)[C@H](C)NC(=O)[C@H](CO)NC(=O)CNC(=O)[C@H](CO)NC(=O)CN)C(=O)N[C@@H](Cc1ccccc1)C(=O)NCC(=O)NCCC(=O)O [SEQ ID NO: 23, Gly--Ser--Gly--Ser--Ala--Gly--Pro--Gln--Tyr--Met--Phe--Gly--βAla] (H-GSGSAGPQYMFG[βAla]-OH)",1.0

# More lines, now with the values ahead:
row,Krel (relative binding affinity),Molecule
1,6.6,"CC[C@H](C)[C@H](NC(=O)[C@@H]1CCCN1C(=O)CNC(=O)[C@H](C)NC(=O)[C@H](CO)NC(=O)CNC(=O)[C@H](CO)NC(=O)CN)C(=O)N[C@@H](Cc1ccc(O)cc1)C(=O)N[C@H](C(=O)N[C@@H](Cc1ccccc1)C(=O)NCC(=O)NCCC(=O)O)C(C)C [SEQ ID NO: 19, Gly--Ser--Gly--Ser--Ala--Gly--Pro--Ile--Tyr--Val--Phe--Gly--βAla] (H-GSGSAGPIYVFG[βAla]-OH)"
2,2.0,"CC(C)[C@H](NC(=O)[C@@H]1CCCN1C(=O)CNC(=O)[C@H](C)NC(=O)[C@H](CO)NC(=O)CNC(=O)[C@H](CO)NC(=O)CN)C(=O)N[C@@H](Cc1ccc(O)cc1)C(=O)N[C@@H](CO)C(=O)N[C@@H](Cc1ccccc1)C(=O)NCC(=O)NCCC(=O)O [SEQ ID NO: 20, Gly--Ser--Gly--Ser--Ala--Gly--Pro--Val--Tyr--Ser--Phe--Gly--βAla] (H-GSGSAGPVYSFG[βAla]-OH)"
3,1.3,"CC[C@H](C)[C@H](NC(=O)[C@@H]1CCCN1C(=O)CNC(=O)[C@H](C)NC(=O)[C@H](CO)NC(=O)CNC(=O)[C@H](CO)NC(=O)CN)C(=O)N[C@@H](Cc1ccc(O)cc1)C(=O)N[C@@H](CC(=O)O)C(=O)N[C@@H](Cc1ccccc1)C(=O)NCC(=O)NCCC(=O)O [SEQ ID NO: 22, Gly--Ser--Gly--Ser--Ala--Gly--Pro--Ile--Tyr--Asp--Phe--Gly--βAla] (H-GSGSAGPIYDFG[βAla]-OH)"

# — patent US5380668A (University of Utah Research Foundation, priority 1993, dated 1995)
